The values that follow come from US20240383875A1, “Benzimidazole Pyridine Derivatives” (Hoffmann-La Roche Inc., priority 2022, published 2024).

Molecules are shown by their SMILES.

What all share (assay type): biochemical
For experiment [1], the target named is SIK1 (Homo sapiens, UniProt P57059). Nature of the experiment: Enzymatic activity assay SIK1, RapidFire mass spectrometry (phosphorylation of CHK-peptide). To be noted: RapidFire MS, inhibition of SIK1; read-out: SIK1 RF IC50. The essentials:
(§1)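 Human SIK1/2/3, 5/0.5/1.5 nM; 12.5 mM HEPES pH 7.0, 10 mM Mg acetate, 0.005% BSA. 30 min cpd pre-inc, + CHK-peptide (10 μM soln) + ATP (100 μM soln), 45 min RT. Formic acid stop; RF-MS phospho ratio; IC50.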

For experiment [2], the target named is SIK2 (Homo sapiens, UniProt Q9H0K1). The experiment in a line: Enzymatic activity assay SIK2, RapidFire mass spectrometry (phosphorylation of CHK-peptide). Conditions: RapidFire MS, inhibition of SIK2; read-out: SIK2 RF IC50. The gist of the method: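 Read-out is the summed phospho-species fraction of CHK-peptide by RapidFire mass spectrometry, normalized between DMSO and 1 μM YKL-05-099. The reaction used 0.5 nM SIK2, 100 μM ATP and 10 μM peptide solutions in HEPES pH 7.0/10 mM magnesium acetate for 45 min at ambient temperature.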
Sequence of SIK2 (Q9H0K1 whole entry): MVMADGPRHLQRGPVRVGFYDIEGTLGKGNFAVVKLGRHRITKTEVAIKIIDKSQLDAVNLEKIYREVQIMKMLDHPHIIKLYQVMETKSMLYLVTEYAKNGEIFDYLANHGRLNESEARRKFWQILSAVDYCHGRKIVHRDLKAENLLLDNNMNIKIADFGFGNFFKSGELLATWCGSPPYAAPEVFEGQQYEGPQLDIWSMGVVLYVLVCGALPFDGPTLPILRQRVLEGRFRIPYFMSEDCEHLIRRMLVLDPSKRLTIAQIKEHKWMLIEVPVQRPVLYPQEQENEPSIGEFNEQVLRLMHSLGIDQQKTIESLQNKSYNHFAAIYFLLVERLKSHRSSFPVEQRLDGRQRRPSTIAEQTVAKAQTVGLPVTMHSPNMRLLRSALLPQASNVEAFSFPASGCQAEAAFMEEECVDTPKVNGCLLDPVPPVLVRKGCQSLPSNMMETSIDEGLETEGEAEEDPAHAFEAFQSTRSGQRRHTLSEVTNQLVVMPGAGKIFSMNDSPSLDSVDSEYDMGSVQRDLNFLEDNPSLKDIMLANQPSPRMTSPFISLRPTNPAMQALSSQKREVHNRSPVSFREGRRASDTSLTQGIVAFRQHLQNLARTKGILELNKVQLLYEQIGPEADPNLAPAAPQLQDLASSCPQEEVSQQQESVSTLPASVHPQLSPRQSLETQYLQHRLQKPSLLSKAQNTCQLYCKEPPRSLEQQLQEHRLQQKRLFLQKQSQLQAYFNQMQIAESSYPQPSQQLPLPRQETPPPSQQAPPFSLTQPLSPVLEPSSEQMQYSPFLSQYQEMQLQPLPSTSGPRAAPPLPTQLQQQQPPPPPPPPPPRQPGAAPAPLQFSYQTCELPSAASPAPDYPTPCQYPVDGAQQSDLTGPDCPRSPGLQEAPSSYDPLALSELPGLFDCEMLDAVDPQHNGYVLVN

Experiment [3] deals with SIK3 (Homo sapiens, UniProt Q9Y2K2). The experiment in a line: Enzymatic activity assay SIK3, RapidFire mass spectrometry (phosphorylation of CHK-peptide). To be noted: RapidFire MS, inhibition of SIK3; read-out: SIK3 RF IC50. The essentials: as §1
Sequence of SIK3 (Q9Y2K2 whole entry): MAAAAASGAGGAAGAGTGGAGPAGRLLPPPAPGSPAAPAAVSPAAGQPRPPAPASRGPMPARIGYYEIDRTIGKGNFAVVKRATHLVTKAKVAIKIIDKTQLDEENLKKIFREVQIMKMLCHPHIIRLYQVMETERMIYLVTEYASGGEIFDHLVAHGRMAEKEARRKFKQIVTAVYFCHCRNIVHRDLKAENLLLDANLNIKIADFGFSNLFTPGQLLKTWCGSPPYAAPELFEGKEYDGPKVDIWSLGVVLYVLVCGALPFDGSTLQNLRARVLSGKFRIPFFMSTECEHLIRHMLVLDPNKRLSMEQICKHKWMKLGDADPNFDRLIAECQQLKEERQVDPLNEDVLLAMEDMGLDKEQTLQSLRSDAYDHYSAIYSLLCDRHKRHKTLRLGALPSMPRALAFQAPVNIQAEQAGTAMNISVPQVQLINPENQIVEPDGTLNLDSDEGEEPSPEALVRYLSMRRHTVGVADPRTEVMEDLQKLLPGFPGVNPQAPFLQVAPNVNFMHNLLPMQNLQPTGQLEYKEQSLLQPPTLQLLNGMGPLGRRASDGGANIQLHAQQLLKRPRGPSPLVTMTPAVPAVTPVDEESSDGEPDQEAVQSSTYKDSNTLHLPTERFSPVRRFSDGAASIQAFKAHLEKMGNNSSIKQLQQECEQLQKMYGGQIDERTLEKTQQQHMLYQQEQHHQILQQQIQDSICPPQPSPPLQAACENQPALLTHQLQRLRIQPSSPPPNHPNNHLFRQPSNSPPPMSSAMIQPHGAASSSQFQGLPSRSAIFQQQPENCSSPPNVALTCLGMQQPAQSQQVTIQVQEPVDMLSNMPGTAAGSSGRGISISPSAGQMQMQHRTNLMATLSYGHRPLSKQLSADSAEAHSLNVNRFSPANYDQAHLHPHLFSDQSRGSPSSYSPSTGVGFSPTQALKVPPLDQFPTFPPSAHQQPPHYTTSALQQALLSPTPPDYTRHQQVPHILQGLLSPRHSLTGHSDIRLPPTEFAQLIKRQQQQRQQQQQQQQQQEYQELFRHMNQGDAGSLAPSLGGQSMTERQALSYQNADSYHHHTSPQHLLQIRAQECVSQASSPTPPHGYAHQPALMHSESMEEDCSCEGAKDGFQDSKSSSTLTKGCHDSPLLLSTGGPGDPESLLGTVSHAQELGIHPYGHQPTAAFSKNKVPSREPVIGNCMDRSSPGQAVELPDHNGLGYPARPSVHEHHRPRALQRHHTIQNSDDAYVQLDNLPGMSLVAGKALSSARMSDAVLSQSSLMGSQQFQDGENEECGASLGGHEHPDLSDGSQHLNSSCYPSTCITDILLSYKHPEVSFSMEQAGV

Sequence of SIK1 (P57059 whole entry): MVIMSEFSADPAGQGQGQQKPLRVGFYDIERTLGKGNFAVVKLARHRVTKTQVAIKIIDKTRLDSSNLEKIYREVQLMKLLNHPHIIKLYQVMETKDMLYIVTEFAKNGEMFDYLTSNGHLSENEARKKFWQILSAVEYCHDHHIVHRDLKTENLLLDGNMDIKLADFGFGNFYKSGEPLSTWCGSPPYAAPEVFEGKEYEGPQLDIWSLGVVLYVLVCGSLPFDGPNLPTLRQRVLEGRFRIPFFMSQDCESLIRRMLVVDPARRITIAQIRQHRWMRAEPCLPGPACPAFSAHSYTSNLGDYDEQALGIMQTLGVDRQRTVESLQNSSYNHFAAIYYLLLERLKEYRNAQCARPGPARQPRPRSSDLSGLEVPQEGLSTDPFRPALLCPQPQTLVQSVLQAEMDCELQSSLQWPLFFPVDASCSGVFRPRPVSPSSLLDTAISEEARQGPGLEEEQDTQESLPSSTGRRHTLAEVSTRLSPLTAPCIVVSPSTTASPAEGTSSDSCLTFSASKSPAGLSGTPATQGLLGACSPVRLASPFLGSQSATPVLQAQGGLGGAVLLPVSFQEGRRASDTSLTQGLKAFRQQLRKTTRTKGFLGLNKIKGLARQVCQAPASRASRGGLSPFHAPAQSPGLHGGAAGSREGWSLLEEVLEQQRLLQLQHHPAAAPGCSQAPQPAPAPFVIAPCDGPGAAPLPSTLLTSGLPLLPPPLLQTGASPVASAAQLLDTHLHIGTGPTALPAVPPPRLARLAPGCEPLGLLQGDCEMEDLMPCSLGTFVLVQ

Consider `CCn1nc(C(F)(F)F)cc1-c1nc(-n2cnc3cc(Nc4ccc(C)nn4)ccc32)ccc1C(C)O` (stereo not drawn) [Example 250, 1-[2-[2-Ethyl-5-(trifluoromethyl)pyrazol-3-yl]-6-[5-[(6-methylpyridazin-3-yl)amino]benzimidazol-1-yl]-3-pyridyl]ethanol], for which the IC50 in experiment [1] worked out at 985 nM; in experiment [2] it was 25.2 nM; in experiment [3], 4.8 nM.
On to `Cc1ccc(Nc2ccc3c(c2)ncn3-c2ccc([C@@H](C)O)c(-c3cn(CC(F)(F)F)nc3C)n2)nn1` [Example 251, (1R)-1-[6-[5-[(6-Methylpyridazin-3-yl)amino]benzimidazol-1-yl]-2-[3-methyl-1-(2,2,2-trifluoroethyl)pyrazol-4-yl]-3-pyridyl]ethanol], for which the IC50 in experiment [1] stood at 63 nM; in experiment [2] it was 0.3 nM; in experiment [3], 0.4 nM.
In the case of `Cc1ccc(Nc2ccc3c(c2)ncn3-c2ccc([C@H](C)O)c(-c3cn(CC(F)(F)F)nc3C)n2)nn1` [Example 252, (1S)-1-[6-[5-[(6-Methylpyridazin-3-yl)amino]benzimidazol-1-yl]-2-[3-methyl-1-(2,2,2-trifluoroethyl)pyrazol-4-yl]-3-pyridyl]ethanol], the values for the IC50 in experiment [1], in experiment [2] and in experiment [3] were 5620 nM, 46.8 nM and 80.4 nM, respectively.
As to `Cc1ccc(Nc2ccc3c(c2)ncn3-c2ccc(C(C)O)c(-n3cc(C#N)nn3)n2)nn1` (stereo not drawn) [Example 253, 1-[3-(1-Hydroxyethyl)-6-[5-[(6-methylpyridazin-3-yl)amino]benzimidazol-1-yl]-2-pyridyl]triazole-4-carbonitrile], the IC50 was 8970 nM in experiment [1], 161 nM in experiment [2] and 34.5 nM in experiment [3].
Regarding `Cc1ccc(Nc2ccc3c(c2)ncn3-c2ccc(C(C)O)c(N3C[C@@H](C#N)C[C@H]3C)n2)nn1` (stereo partly drawn) [Example 254, (3S,5R)-1-[3-(1-hydroxyethyl)-6-[5-[(6-methylpyridazin-3-yl)amino]benzimidazol-1-yl]-2-pyridyl]-5-methyl-pyrrolidine-3-carbonitrile], the IC50 in experiment [1] is 5110 nM; in experiment [2], 150 nM; in experiment [3] it was 37.3 nM.
Taken in the same sequence, the figures for `Cc1ccc(Nc2ccc3c(c2)ncn3-c2ccc(C(C)O)c(-c3cc(C#N)nn3C)n2)nn1` (stereo not drawn) [Example 255, 5-[3-(1-hydroxyethyl)-6-[5-[(6-methylpyridazin-3-yl)amino]benzimidazol-1-yl]-2-pyridyl]-1-methyl-pyrazole-3-carbonitrile] were 12800 nM, 194 nM and 30.4 nM.
For `Cc1ccc(Nc2ccc3c(c2)ncn3-c2ccc(C(C)O)c(-n3ncc(C#N)n3)n2)nn1` (stereo not drawn) [Example 256, 2-[3-(1-Hydroxyethyl)-6-[5-[(6-methylpyridazin-3-yl)amino]benzimidazol-1-yl]-2-pyridyl]triazole-4-carbonitrile], in that order: 1530 nM, 22 nM and 4.8 nM.
`Cc1cc(C#N)nn1-c1nc(-n2cnc3cc(C#N)ccc32)ccc1C(C)O` (stereo not drawn) [Example 263, 1-[6-(3-Cyano-5-methyl-pyrazol-1-yl)-5-(1-hydroxyethyl)-2-pyridyl]benzimidazole-5-carbonitrile]: the IC50 came out at 330 nM in experiment [1], 144 nM in experiment [2] and 158 nM in experiment [3].
Turning to `CCn1cc(-c2nc(-n3cnc4cc(Nc5ccc(C)nn5)ccc43)ccc2C(C)O)c(C)n1` (stereo not drawn) [Example 264, 1-[2-(1-Ethyl-3-methyl-pyrazol-4-yl)-6-[5-[(6-methylpyridazin-3-yl)amino]benzimidazol-1-yl]-3-pyridyl]ethanol; formic acid], the IC50 amounted to 851 nM in experiment [1], 2.6 nM in experiment [2] and 1.5 nM in experiment [3].
As for `COCCn1cc(-c2nc(-n3cnc4cc(Nc5ccc(C)nn5)ccc43)ccc2C(C)O)c(C)n1` (stereo not drawn) [Example 265, 1-[2-[1-(2-Methoxyethyl)-3-methyl-pyrazol-4-yl]-6-[5-[(6-methylpyridazin-3-yl)amino]benzimidazol-1-yl]-3-pyridyl]ethanol; formic acid], the results for the IC50 in experiment [1], in experiment [2] and in experiment [3] were 270 nM, 1.6 nM and 1.7 nM, respectively.
For `Cc1ccc(Nc2ccc3c(c2)ncn3-c2ccc(C(C)O)c(-c3cn(CC4CC4)nc3C)n2)nn1` (stereo not drawn) [Example 266, 1-[2-[1-(Cyclopropylmethyl)-3-methyl-pyrazol-4-yl]-6-[5-[(6-methylpyridazin-3-yl)amino]benzimidazol-1-yl]-3-pyridyl]ethanol; formic acid], in that order: 136 nM, 1 nM and 1.4 nM.
Taken in the same sequence, the figures for `Cc1ccc(Nc2ccc3ncn(-c4ccc(CO)c(-n5nc(C#N)cc5C)n4)c3c2)nn1` [Example 269, 5-Methyl-1-[3-methylol-6-[6-[(6-methylpyridazin-3-yl)amino]benzimidazol-1-yl]-2-pyridyl]pyrazole-3-carbonitrile; formic acid] were 151 nM, 211 nM and 1030 nM.
With `Cc1ccc(Nc2ccc3c(c2)ncn3-c2ccc(CO)c(-n3nc(C#N)cc3C)n2)nn1` [Example 270, 5-Methyl-1-[3-methylol-6-[5-[(6-methylpyridazin-3-yl)amino]benzimidazol-1-yl]-2-pyridyl]pyrazole-3-carbonitrile; formic acid], the figures for the IC50 in experiment [1], in experiment [2] and in experiment [3] were 134 nM, 0.8 nM and 0.2 nM, respectively.
Turning to `CCn1ncc(-c2nc(-n3cnc4cc(Nc5ccc(C)nn5)ccc43)ccc2C(C)O)c1C` (stereo not drawn) [Example 271, 1-[2-(1-Ethyl-5-methyl-pyrazol-4-yl)-6-[5-[(6-methylpyridazin-3-yl)amino]benzimidazol-1-yl]-3-pyridyl]ethanol; formic acid], the IC50 came out at 895 nM in experiment [1], 7.3 nM in experiment [2] and 2.1 nM in experiment [3].
Taken in the same sequence, the figures for `Cc1ccc(Nc2ccc3c(c2)ncn3-c2ccc(C(C)O)c(-c3cnn(CC4CC4)c3C)n2)nn1` (stereo not drawn) [Example 272, 1-[2-[1-(Cyclopropylmethyl)-5-methyl-pyrazol-4-yl]-6-[5-[(6-methylpyridazin-3-yl)amino]benzimidazol-1-yl]-3-pyridyl]ethanol; formic acid] were 193 nM, 2.4 nM and 1.2 nM.
Take `Cc1ccc(Nc2ccc3c(c2)ncn3-c2ccc(C(C)O)c(-c3cnn(CC4CCC4)c3C)n2)nn1` (stereo not drawn) [Example 273, 1-[2-[1-(Cyclobutylmethyl)-5-methyl-pyrazol-4-yl]-6-[5-[(6-methylpyridazin-3-yl)amino]benzimidazol-1-yl]-3-pyridyl]ethanol; formic acid]: the IC50 is 115 nM in experiment [1], 1.2 nM in experiment [2] and 1.5 nM in experiment [3].
Regarding `Cc1ccc(Nc2ccc3c(c2)ncn3-c2ccc(C(C)O)c(-c3cn(CC4CCC4)nc3C)n2)nn1` (stereo not drawn) [Example 274, 1-[2-[1-(Cyclobutylmethyl)-3-methyl-pyrazol-4-yl]-6-[5-[(6-methylpyridazin-3-yl)amino]benzimidazol-1-yl]-3-pyridyl]ethanol], the IC50 in experiment [1] stood at 120 nM; in experiment [2], 1.2 nM; in experiment [3], 1.1 nM.
Taken in the same sequence, the figures for `Cc1ccc(Nc2cc3ncn(-c4ccc(C(C)O)c(-n5nc(C#N)cc5C)n4)c3cc2C(F)(F)F)nn1` (stereo not drawn) [Example 275, 1-[3-(1-hydroxyethyl)-6-[5-[(6-methylpyridazin-3-yl)amino]-6-(trifluoromethyl)benzimidazol-1-yl]-2-pyridyl]-5-methyl-pyrazole-3-carbonitrile] were 800 nM, 6.1 nM and 15.9 nM.
For `COC(=N)c1cc(C)n(-c2nc(-n3cnc4cc(Nc5ccc(C)nn5)ccc43)ccc2[C@H](C)O)n1` [Example 276, 1-[3-[(1S)-1-hydroxyethyl]-6-[5-[(6-methylpyridazin-3-yl)amino]benzimidazol-1-yl]-2-pyridyl]-5-methyl-pyrazole-3-carboximidic acid methyl ester], the IC50 in experiment [1] turned out to be 82 nM; in experiment [2], 2.3 nM; in experiment [3], 1.8 nM.
For `Cc1ccc(Nc2ccc3c(c2)ncn3-c2ccc(C(C)O)c(-c3cn(C4CC4(F)F)nc3C)n2)nn1` (stereo not drawn) [Example 277, 1-[2-[1-(2,2-difluorocyclopropyl)-3-methyl-pyrazol-4-yl]-6-[5-[(6-methylpyridazin-3-yl)amino]benzimidazol-1-yl]-3-pyridyl]ethanol], in that order: 521 nM, 2 nM and 1.8 nM.
Turning to `COC(C)Cn1cc(-c2nc(-n3cnc4cc(Nc5ccc(C)nn5)ccc43)ccc2C(C)O)c(C)n1` (stereo not drawn) [Example 278, 1-[2-[1-(2-methoxypropyl)-3-methyl-pyrazol-4-yl]-6-[5-[(6-methylpyridazin-3-yl)amino]benzimidazol-1-yl]-3-pyridyl]ethanol], the IC50 in experiment [1] came to 249 nM; in experiment [2] it was 2 nM; in experiment [3], 4.7 nM.
For `COC(C)Cn1ncc(-c2nc(-n3cnc4cc(Nc5ccc(C)nn5)ccc43)ccc2C(C)O)c1C` (stereo not drawn) [Example 279, 1-[2-[1-(2-methoxypropyl)-5-methyl-pyrazol-4-yl]-6-[5-[(6-methylpyridazin-3-yl)amino]benzimidazol-1-yl]-3-pyridyl]ethanol], in that order: 532 nM, 4.7 nM and 2.9 nM.

A word on the IC50: it is the concentration at which inhibition is half-maximal.
